# Experimental data from PubChem BioAssay (NCI).
#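 Following 48 hours of exposure in 96-well plates, responses at five concentrations were used to interpolate endpoints linearly. TGI: total growth inhibition.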
# Tests used:
# Assay in all cases: inhibition of tumour cell growth, NCI panel, 48 h
# SK-OV-3 ovarian = test system: SK-OV-3 ovarian
# SNB-75 CNS = test system: SNB-75 CNS
# LXFL 529 NSCLC = test system: LXFL 529 NSCLC
# SF-539 CNS = test system: SF-539 CNS
# EKVX NSCLC = test system: EKVX NSCLC
# SN12C renal = test system: SN12C renal
# LOX IMVI melanoma = test system: LOX IMVI melanoma
# COLO 205 colon = test system: COLO 205 colon
# SK-MEL-2 melanoma = test system: SK-MEL-2 melanoma
# NCI-H460 lung = test system: NCI-H460 lung
# UACC-257 melanoma = test system: UACC-257 melanoma
# SK-MEL-5 melanoma = test system: SK-MEL-5 melanoma
# HCT-116 colon = test system: HCT-116 colon
# UO-31 renal = test system: UO-31 renal
# NCI-H522 lung = test system: NCI-H522 lung
# OVCAR-4 ovarian = test system: OVCAR-4 ovarian
# RXF 393 renal = test system: RXF 393 renal
# HL-60(TB) leukemia = test system: HL-60(TB) leukemia
# M19-MEL melanoma = test system: M19-MEL melanoma
# A549 NSCLC = test system: A549 NSCLC
# M14 melanoma = test system: M14 melanoma
# SF-268 CNS = test system: SF-268 CNS
# MALME-3M melanoma = test system: MALME-3M melanoma
# CCRF-CEM leukemia = test system: CCRF-CEM leukemia
# HCC-2998 colon = test system: HCC-2998 colon
# IGROV1 ovarian = test system: IGROV1 ovarian
# UACC-62 melanoma = test system: UACC-62 melanoma
# TK-10 renal = test system: TK-10 renal
# HT29 colon = test system: HT29 colon
# NCI-H226 lung = test system: NCI-H226 lung
# MOLT-4 leukemia = test system: MOLT-4 leukemia
# OVCAR-3 ovarian = test system: OVCAR-3 ovarian
# SF-295 CNS = test system: SF-295 CNS
# SNB-19 CNS = test system: SNB-19 CNS
# XF 498 CNS = test system: XF 498 CNS
# NCI-H23 lung = test system: NCI-H23 lung
# KM20L2 colon = test system: KM20L2 colon
# SNB-78 CNS = test system: SNB-78 CNS
# SR leukemia = test system: SR leukemia
# HOP-62 NSCLC = test system: HOP-62 NSCLC
# HOP-92 NSCLC = test system: HOP-92 NSCLC
# HCT-15 colon = test system: HCT-15 colon
# ACHN renal = test system: ACHN renal
# 786-0 renal = test system: 786-0 renal
# OVCAR-8 ovarian = test system: OVCAR-8 ovarian
# SW-620 colon = test system: SW-620 colon
# DMS 273 small cell lung = test system: DMS 273 small cell lung
# U251 CNS = test system: U251 CNS
# SK-MEL-28 melanoma = test system: SK-MEL-28 melanoma
# KM12 colon = test system: KM12 colon
# K-562 leukemia = test system: K-562 leukemia
# DLD-1 colon = test system: DLD-1 colon
# DMS 114 small cell lung = test system: DMS 114 small cell lung
# RPMI-8226 leukemia = test system: RPMI-8226 leukemia
# A498 renal = test system: A498 renal
smiles,measurement,setting,value
Cc1nc2c(n1CC(C)C)C(=O)c1ccccc1C2=O,TGI,SK-OV-3 ovarian,> 100 µM
same,TGI,SNB-75 CNS,> 100 µM
same,TGI,LXFL 529 NSCLC,> 100 µM
same,TGI,SF-539 CNS,87.6 µM
same,TGI,EKVX NSCLC,> 100 µM
same,TGI,SN12C renal,> 100 µM
same,TGI,LOX IMVI melanoma,> 100 µM
same,TGI,COLO 205 colon,> 100 µM
same,TGI,SK-MEL-2 melanoma,74.7 µM
same,TGI,NCI-H460 lung,54.2 µM
same,TGI,UACC-257 melanoma,45.4 µM
same,TGI,SK-MEL-5 melanoma,34.7 µM
same,TGI,HCT-116 colon,67.4 µM
same,TGI,UO-31 renal,> 100 µM
same,TGI,NCI-H522 lung,76.5 µM
same,TGI,OVCAR-4 ovarian,> 100 µM
same,TGI,RXF 393 renal,> 100 µM
same,TGI,HL-60(TB) leukemia,> 100 µM
same,TGI,M19-MEL melanoma,29.6 µM
same,TGI,A549 NSCLC,97.7 µM
same,TGI,M14 melanoma,> 100 µM
same,TGI,SF-268 CNS,> 100 µM
same,TGI,MALME-3M melanoma,40.6 µM
same,TGI,CCRF-CEM leukemia,> 100 µM
same,TGI,HCC-2998 colon,> 100 µM
same,TGI,IGROV1 ovarian,> 100 µM
same,TGI,UACC-62 melanoma,50.5 µM
same,TGI,TK-10 renal,> 100 µM
same,TGI,HT29 colon,> 100 µM
same,TGI,NCI-H226 lung,> 100 µM
same,TGI,MOLT-4 leukemia,> 100 µM
same,TGI,OVCAR-3 ovarian,82.1 µM
same,TGI,SF-295 CNS,> 100 µM
same,TGI,SNB-19 CNS,> 100 µM
same,TGI,XF 498 CNS,95.9 µM
same,TGI,NCI-H23 lung,49.2 µM
same,TGI,KM20L2 colon,> 100 µM
same,TGI,SNB-78 CNS,> 100 µM
same,TGI,SR leukemia,> 100 µM
same,TGI,HOP-62 NSCLC,> 100 µM
same,TGI,HOP-92 NSCLC,65.7 µM
same,TGI,HCT-15 colon,> 100 µM
same,TGI,ACHN renal,> 100 µM
same,TGI,786-0 renal,> 100 µM
same,TGI,OVCAR-8 ovarian,> 100 µM
same,TGI,SW-620 colon,> 100 µM
same,TGI,DMS 273 small cell lung,> 100 µM
same,TGI,U251 CNS,> 100 µM
same,TGI,SK-MEL-28 melanoma,> 100 µM
same,TGI,KM12 colon,> 100 µM
same,TGI,K-562 leukemia,> 100 µM
same,TGI,DLD-1 colon,> 100 µM
CCCOP1(=O)C=C(O)C(Cl)=C(C)C1 (stereo not drawn),TGI,SK-OV-3 ovarian,> 100 µM
same,TGI,SNB-75 CNS,> 100 µM
same,TGI,LXFL 529 NSCLC,> 100 µM
same,TGI,SF-539 CNS,> 100 µM
same,TGI,EKVX NSCLC,> 100 µM
same,TGI,SN12C renal,> 100 µM
same,TGI,LOX IMVI melanoma,> 100 µM
same,TGI,COLO 205 colon,> 100 µM
same,TGI,SK-MEL-2 melanoma,> 100 µM
same,TGI,NCI-H460 lung,> 100 µM
same,TGI,UACC-257 melanoma,> 100 µM
same,TGI,SK-MEL-5 melanoma,> 100 µM
same,TGI,HCT-116 colon,> 100 µM
same,TGI,UO-31 renal,> 100 µM
same,TGI,NCI-H522 lung,> 100 µM
same,TGI,OVCAR-4 ovarian,> 100 µM
same,TGI,RXF 393 renal,> 100 µM
same,TGI,HL-60(TB) leukemia,> 100 µM
same,TGI,M19-MEL melanoma,> 100 µM
same,TGI,A549 NSCLC,> 100 µM
same,TGI,M14 melanoma,> 100 µM
same,TGI,SF-268 CNS,> 100 µM
same,TGI,MALME-3M melanoma,> 100 µM
same,TGI,CCRF-CEM leukemia,> 100 µM
same,TGI,HCC-2998 colon,> 100 µM
same,TGI,IGROV1 ovarian,> 100 µM
same,TGI,UACC-62 melanoma,> 100 µM
same,TGI,TK-10 renal,> 100 µM
same,TGI,HT29 colon,> 100 µM
same,TGI,NCI-H226 lung,> 100 µM
same,TGI,MOLT-4 leukemia,> 100 µM
same,TGI,OVCAR-3 ovarian,> 100 µM
same,TGI,SF-295 CNS,> 100 µM
same,TGI,SNB-19 CNS,> 100 µM
same,TGI,XF 498 CNS,> 100 µM
same,TGI,NCI-H23 lung,> 100 µM
same,TGI,KM20L2 colon,> 100 µM
same,TGI,SNB-78 CNS,> 100 µM
same,TGI,SR leukemia,> 100 µM
same,TGI,HOP-62 NSCLC,> 100 µM
same,TGI,HOP-92 NSCLC,> 100 µM
same,TGI,HCT-15 colon,> 100 µM
same,TGI,ACHN renal,> 100 µM
same,TGI,786-0 renal,> 100 µM
same,TGI,OVCAR-8 ovarian,> 100 µM
same,TGI,SW-620 colon,> 100 µM
same,TGI,DMS 273 small cell lung,> 100 µM
same,TGI,U251 CNS,> 100 µM
same,TGI,SK-MEL-28 melanoma,> 100 µM
same,TGI,KM12 colon,> 100 µM
same,TGI,K-562 leukemia,> 100 µM
same,TGI,DLD-1 colon,> 100 µM
CCOC(=O)C(C(CC(=O)OC)NC(=O)OCc1ccccc1)C1(C)OCCO1 (stereo not drawn),TGI,SNB-75 CNS,> 100 µM
same,TGI,LXFL 529 NSCLC,> 100 µM
same,TGI,SF-539 CNS,> 100 µM
same,TGI,EKVX NSCLC,> 100 µM
same,TGI,SN12C renal,> 100 µM
same,TGI,LOX IMVI melanoma,> 100 µM
same,TGI,COLO 205 colon,> 100 µM
same,TGI,SK-MEL-2 melanoma,> 100 µM
same,TGI,NCI-H460 lung,> 100 µM
same,TGI,UACC-257 melanoma,> 100 µM
same,TGI,SK-MEL-5 melanoma,> 100 µM
same,TGI,HCT-116 colon,> 100 µM
same,TGI,UO-31 renal,> 100 µM
same,TGI,OVCAR-4 ovarian,> 100 µM
same,TGI,RXF 393 renal,> 100 µM
same,TGI,HL-60(TB) leukemia,> 100 µM
same,TGI,A549 NSCLC,> 100 µM
same,TGI,M14 melanoma,> 100 µM
same,TGI,SF-268 CNS,> 100 µM
same,TGI,MALME-3M melanoma,> 100 µM
same,TGI,CCRF-CEM leukemia,> 100 µM
same,TGI,HCC-2998 colon,> 100 µM
same,TGI,IGROV1 ovarian,> 100 µM
same,TGI,UACC-62 melanoma,> 100 µM
same,TGI,TK-10 renal,> 100 µM
same,TGI,HT29 colon,> 100 µM
same,TGI,NCI-H226 lung,> 100 µM
same,TGI,MOLT-4 leukemia,> 100 µM
same,TGI,DMS 114 small cell lung,> 100 µM
same,TGI,OVCAR-3 ovarian,> 100 µM
same,TGI,SF-295 CNS,> 100 µM
same,TGI,SNB-19 CNS,> 100 µM
same,TGI,XF 498 CNS,> 100 µM
same,TGI,NCI-H23 lung,> 100 µM
same,TGI,KM20L2 colon,> 100 µM
same,TGI,SR leukemia,> 100 µM
same,TGI,HOP-62 NSCLC,> 100 µM
same,TGI,HCT-15 colon,> 100 µM
same,TGI,ACHN renal,> 100 µM
same,TGI,786-0 renal,> 100 µM
same,TGI,OVCAR-8 ovarian,> 100 µM
same,TGI,SW-620 colon,> 100 µM
same,TGI,RPMI-8226 leukemia,> 100 µM
same,TGI,DMS 273 small cell lung,> 100 µM
same,TGI,U251 CNS,> 100 µM
same,TGI,SK-MEL-28 melanoma,> 100 µM
same,TGI,K-562 leukemia,> 100 µM
same,TGI,DLD-1 colon,> 100 µM
same,TGI,A498 renal,> 100 µM
